Reference: PubChem BioAssay AID330 (DTP/NCI, 2004)
Where “and” joins values, the source holds several entries; their conditions need not be identical. Equal values may be shown once. Toxic doses and inconclusive results are not listed. The calls were made as follows: active = survival T/C of 150% or more; inactive = T/C below 125% in these data.

Tested on: P388 leukemia ip, CD2F1 mice, survival T/C
Assay: NCI In Vivo Anticancer Drug Screen. Data for tumor model P388 Leukemia (intraperitoneal) in CD2F1 (CDF1) mice
Conditions: endpoint: median survival time, higher = longer survival
Summary of the method: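 Mice carrying the transplanted tumor received test compound or vehicle. Survival was recorded in each group, and the value is the treated-group measurement divided by that of the vehicle-treated control group.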

[1] = dose: 50.0 mg/kg/injection, schedule: Q01DX009 (ip), vehicle: Klucel (hydroxypropylcellulose) (HPC)
[2] = dose: 100.0 mg/kg/injection, schedule: Q01DX009 (ip), vehicle: Klucel (hydroxypropylcellulose) (HPC)
[3] = dose: 200.0 mg/kg/injection, schedule: Q01DX009 (ip), vehicle: Klucel (hydroxypropylcellulose) (HPC)
[4] = dose: 100.0 mg/kg/injection, schedule: Q01DX001 (ip), vehicle: Klucel (hydroxypropylcellulose) (HPC)
[5] = dose: 200.0 mg/kg/injection, schedule: Q01DX001 (ip), vehicle: Klucel (hydroxypropylcellulose) (HPC)
[6] = dose: 400.0 mg/kg/injection, schedule: Q01DX001 (ip), vehicle: Klucel (hydroxypropylcellulose) (HPC)

Measured: T/C

CC(=O)Nc1ccc(/C=N/NC(=O)COc2ccccc2)cc1
inactive: dose: 60.0 mg/kg/injection, schedule: Q01DX005 (ip), vehicle: saline 100 % of control | dose: 120.0 mg/kg/injection, schedule: Q01DX005 (ip), vehicle: saline 100 % of control | dose: 240.0 mg/kg/injection, schedule: Q01DX005 (ip), vehicle: saline 100 % of control

CC1CC2(OC2C)C(=O)OC2CCN(C)C/C=C(/COC(=O)C1(C)O)C2=O (centres undefined)
inactive: dose: 3.12 mg/kg/injection, schedule: Q01DX009 (ip), vehicle: Klucel (hydroxypropylcellulose) (HPC) 105 % of control | dose: 6.25 mg/kg/injection, schedule: Q01DX009 (ip), vehicle: Klucel (hydroxypropylcellulose) (HPC) 99 % of control | dose: 12.5 mg/kg/injection, schedule: Q01DX009 (ip), vehicle: Klucel (hydroxypropylcellulose) (HPC) 103 % of control | dose: 25.0 mg/kg/injection, schedule: Q01DX009 (ip), vehicle: Klucel (hydroxypropylcellulose) (HPC) 99 % of control | dose: 40.0 mg/kg/injection, schedule: Q01DX009 (ip), vehicle: Klucel (hydroxypropylcellulose) (HPC) 110 % of control | dose: 50.0 mg/kg/injection, schedule: Q04DX002 (ip), vehicle: saline 108 % of control | dose: 80.0 mg/kg/injection, schedule: Q01DX009 (ip), vehicle: Klucel (hydroxypropylcellulose) (HPC) 110 % of control | dose: 100.0 mg/kg/injection, schedule: Q04DX002 (ip), vehicle: saline 101 % of control | dose: 160.0 mg/kg/injection, schedule: Q01DX009 (ip), vehicle: Klucel (hydroxypropylcellulose) (HPC) 100 % of control | dose: 200.0 mg/kg/injection, schedule: Q04DX002 (ip), vehicle: saline 106 % of control

COC(=O)[C@@]12OC[C@]34[C@H]([C@@H](O)[C@@H]1O)[C@@]1(C)CC(=O)C(O)=C(C)[C@@H]1C[C@H]3OC(=O)[C@H](OC(=O)/C=C(\C)C1(C)CO1)[C@@H]24 (some centres undefined)
inactive: dose: 0.12 mg/kg/injection, schedule: Q01DX009 (ip), vehicle: saline + alcohol 119 % of control | dose: 0.5 mg/kg/injection, schedule: Q01DX009 (ip), vehicle: saline + alcohol 105 % of control

Cc1c[nH]c(=O)[nH]c1=O
inactive: dose: 32.0 mg/kg/injection, schedule: Q01DX009 (ip), vehicle: Klucel (hydroxypropylcellulose) (HPC) 99 % of control and 107 % of control | dose: 32.0 mg/kg/injection, schedule: Q01DX009 (ip), vehicle: saline with Tween-80 116 % of control | dose: 64.0 mg/kg/injection, schedule: Q01DX009 (ip), vehicle: Klucel (hydroxypropylcellulose) (HPC) 99 % of control and 102 % of control | dose: 64.0 mg/kg/injection, schedule: Q01DX009 (ip), vehicle: saline with Tween-80 106 % of control | dose: 128.0 mg/kg/injection, schedule: Q01DX009 (ip), vehicle: Klucel (hydroxypropylcellulose) (HPC) 100 % of control and 107 % of control | dose: 128.0 mg/kg/injection, schedule: Q01DX009 (ip), vehicle: saline with Tween-80 111 % of control | dose: 170.0 mg/kg/injection, schedule: Q04DX003 (ip), vehicle: saline with Tween-80 100 % of control | dose: 170.0 mg/kg/injection, schedule: Q## X003 (ip), vehicle: saline with Tween-80 100 % of control | dose: 256.0 mg/kg/injection, schedule: Q01DX009 (ip), vehicle: Klucel (hydroxypropylcellulose) (HPC) 100 % of control and 112 % of control | dose: 260.0 mg/kg/injection, schedule: Q04DX003 (ip), vehicle: saline with Tween-80 94 % of control | dose: 260.0 mg/kg/injection, schedule: Q## X003 (ip), vehicle: saline with Tween-80 94 % of control | dose: 390.0 mg/kg/injection, schedule: Q04DX003 (ip), vehicle: saline with Tween-80 95 % of control and 98 % of control | dose: 390.0 mg/kg/injection, schedule: Q## X003 (ip), vehicle: saline with Tween-80 95 % of control and 98 % of control | dose: 512.0 mg/kg/injection, schedule: Q01DX009 (ip), vehicle: Klucel (hydroxypropylcellulose) (HPC) 106 % of control and 93 % of control | dose: 512.0 mg/kg/injection, schedule: Q01DX009 (ip), vehicle: saline with Tween-80 98 % of control | dose: 520.0 mg/kg/injection, schedule: Q04DX003 (ip), vehicle: saline with Tween-80 95 % of control and 98 % of control | dose: 520.0 mg/kg/injection, schedule: Q## X003 (ip), vehicle: saline with Tween-80 95 % of control and 98 % of control

ClCCN(CCCCCCN(CCCl)c1ccccc1)c1ccccc1
inactive: [1] 109 % of control | [2] 109 % of control | [3] 108 % of control

CCCCC1(CC(=O)OCC)SCCN1C(N)=O (centres undefined)
inactive: [1] 100 % of control | [2] 108 % of control | [3] 106 % of control

CCCCCCCCC(O)C#CC(N)=O (centres undefined)
inactive: dose: 100.0 mg/kg/injection, schedule: Q01DX001 (ip), vehicle: saline with Tween-80 99 % of control | dose: 200.0 mg/kg/injection, schedule: Q01DX001 (ip), vehicle: saline with Tween-80 90 % of control

N#CCN(CNC(=O)c1ccccc1)N=O
inactive: dose: 100.0 mg/kg/injection, schedule: Q04DX002 (ip), vehicle: saline with Tween-80 101 % of control | dose: 200.0 mg/kg/injection, schedule: Q04DX002 (ip), vehicle: saline with Tween-80 105 % of control

C=C(c1ccc(N(CC)CC)cc1)c1ccc(N(CC)CC)cc1
inactive: dose: 50.0 mg/kg/injection, schedule: Q01DX005 (ip), vehicle: saline with Tween-80 95 % of control | dose: 100.0 mg/kg/injection, schedule: Q01DX005 (ip), vehicle: saline with Tween-80 103 % of control | dose: 200.0 mg/kg/injection, schedule: Q01DX005 (ip), vehicle: saline with Tween-80 90 % of control

Cc1nn2cc(-c3ccc4ccccc4c3)nc2[nH]c1=O
inactive: [4] 100 % of control | [5] 99 % of control | [6] 100 % of control

COc1ccc(CC2C=CCN2C(=O)OCc2ccccc2)cc1 (centres undefined)
inactive: [4] 106 % of control | [5] 99 % of control | [6] 99 % of control

O=C1OC2CCCC2C12C(=O)O[C@@H]1CCC[C@@H]12 (mixture of isomers)
inactive: dose: 60.0 mg/kg/injection, schedule: Q01DX005 (ip), vehicle: saline with Tween-80 97 % of control | dose: 120.0 mg/kg/injection, schedule: Q01DX005 (ip), vehicle: saline with Tween-80 99 % of control | dose: 240.0 mg/kg/injection, schedule: Q01DX005 (ip), vehicle: saline with Tween-80 99 % of control
